Reference: publication PMC8235661, “Photoelectric Dye, NK-5962, as a Potential Drug for Preventing Retinal Neurons from Apoptosis: Pharmacokinetic Studies Based on Review of the Evidence” (Life, 2021)
Like-named read-outs stand apart in the source and are kept apart here.

How the values were obtained:
[1] = Cytotoxicity test; format: cell-based
[2] = Eye ball concentration after intravitreous injection; format: in vivo, rat; conditions: intravitreous 16 µM (3 µL)
Protocol: The NK-5962 solutions at 16 μM concentration in phosphate-buffered saline and at 39.7 μM concentration in 0.5% methyl cellulose 400 solution (FUJIFILM Wako Chemicals, Osaka, Japan) were prepared as eye drops and topically applied to both eyes of two Wistar rats assigned for each concentration. The eyes were enucleated 30 min after topical application, washed twice in saline, weighed, and frozen for NK-5962 measurement. In parallel, 3 μL of the NK-5962 solution at 16 μM concentration in phosphate-buffered saline was injected into the vitreous of both eyes of 2 Wistar rats. The eyes in each rat were enucleated 5 min and 2 h after the intravitreous injection, washed twice in saline, weighed, and then frozen. Both eyes of one rat served as the negative control. This study was approved by the Animal Care and Use Committee at Okayama University (Identifier OKU-2016267, OKU-2019196).
Liquid chromatography and tandem mass spectrometry instrument (LC-MS8060) equipped with Shimadzu Nexera series LC system (Shimadzu, Kyoto, Japan) were used. All compounds were analyzed in multi-reaction monitoring mode under electron spray ionization conditions. The analytical column used was a […] C18 MGIII (3 μm × 2.0 mmID × 35 mm; OSAKA SODA, Osaka, Japan) at 50 °C. The gradient mobile phase consisted of 0.1% formic acid in water (mobile phase A) and 0.1% formic acid in acetonitrile (mobile phase B) at a total flow rate of 1 mL/minute. The initial mobile phase composition was 10% B, which was held constant for 0.2 min, increased in a linear fashion to 90% B over 1 min, then held constant for 0.8 min, and then finally brought back to the initial condition of 10% B over 0.01 min and re-equilibrated for 1 min. The transitions (precursor ion > product ion) of NK-5962 and IS (methyl testosterone) are 433.2 > 279.2 and 303.1 > 109.1 (positive), respectively.

[3] = PAMPA (parallel artificial membrane permeability assay); format: in vitro ADME; conditions: PAMPA, pH 6.5; 0.2 μM test compound, 37 °C, 4 h
Protocol: In order to determine the passive membrane diffusion rates, the Corning Gentest Pre-coated PAMPA Plate System was used in the PAMPA test. […] The acceptor plate was then placed on top of the donor plate and incubated at 37 °C without agitation for 4 h. At the end of the incubation, the plates were separated and the solutions from each well of both the acceptor plate and the donor plate were transferred to 96-well plates and mixed with acetonitrile. The final concentrations of compound in both the donor wells and acceptor wells, as well as the concentrations of the initial donor solutions, were analyzed by LC-MS/MS. The permeability of the compound was calculated according to the previous report.

[4] = Hepatic microsomal stability assay, rat; format: in vitro ADME
Protocol: (§1) The disappearance of the parent compound over time was measured by using the amount of drug at time zero as a reference. After 5 min of preincubation, 1 mM NADPH (final concentration, the same applies to the following) was added to a mixture containing 1 μM of the test compound, 0.2 mg/mL of rat or human liver microsomes (Sekisui XenoTech, LLC, Kansas City, KS), 1 mM EDTA, and 100 mM phosphate buffer (pH 7.4) and then incubated at 37 °C for 30 min by rotation at 60 rpm. An aliquot of 50 μL of the incubation mixture was sampled and added to 250 μL of chilled acetonitrile/internal standard (IS). After the centrifugation for 15 min at 3150× g at 4 °C, the supernatants were analyzed by LC-MS/MS. Hepatic microsomal stability (mL/min/kg, CLint) was calculated according to the previous report and 44.8 or 48.8 mg microsomal protein/g liver and 40.0 or 25.7 g liver/kg body weight were used as scaling factors for the rat or human, respectively.

[5] = Hepatic microsomal stability assay, human; format: in vitro ADME
Protocol: as §1

[6] = Unbound fraction by equilibrium dialysis, human plasma; format: in vitro ADME; conditions: 1 μM, equilibrium dialysis 37 °C 4 h
Protocol: (§2) An equilibrium dialysis apparatus, Rapid Equilibrium Dialysis (RED) Device Single-Use Plate with Inserts, 8K MWCO (ThermoFisher Scientific, Waltham, MA, USA), was used to determine the unbound fraction for each compound in human plasma, rat plasma, and medium containing 10% fetal bovine serum (FBS). Plasma or medium was mixed with the test compound (1 μM) and 200 μL aliquots were loaded into the apparatus and dialyzed versus 350 μL of 100 mM phosphate buffer (pH 7.4) at 37 °C for 4 h by rotation at 1000 rpm. The unbound fraction was calculated as the ratio of receiver side (buffer) to donor side (plasma) concentrations.

[7] = Unbound fraction by equilibrium dialysis, rat plasma; format: in vitro ADME; conditions: 1 μM, equilibrium dialysis 37 °C 4 h
Protocol: as §2

[8] = Acute systemic toxicity test; conditions: in vivo
[9] = 1 μM, 0.2 mg/mL microsomes, 1 mM NADPH, 30 min

SMILES: CCCCN(CCCC)c1ccc(C=Cc2sc3ccccc3[n+]2CC(=O)O)cc1.[Br-] [NK-5962, 2-[2-[4-(dibutylamino)phenyl]ethenyl]-3-carboxymethylbenzothiazolium bromide]
- toxicity in the cytotoxicity test [1]: not toxic
- concentration at 0.083 h ([2]; Wistar, rat, eye ball, other: intravitreous injection, 0.083 h (5 min), read-out: Mean Eye Ball Concentration): 7.25 nM
- concentration at 0.083 h ([2]; Wistar, rat, eye ball, other: intravitreous injection, 0.083 h, single eye, read-out: Eye Ball Concentration): 9.23 nM
- concentration at 2 h ([2]; Wistar, rat, eye ball, other: intravitreous injection, 2 h, single eye, read-out: Eye Ball Concentration): 1.19 nM
- concentration at 2 h ([2]; Wistar, rat, eye ball, other: intravitreous injection, 2 h, read-out: Mean Eye Ball Concentration): 1.49 nM
- concentration at 2 h ([2]; 0.083 h, single eye, read-out: Eye Ball Concentration): 5.27 nM
- concentration at 2 h ([2]; 2 h, single eye, read-out: Eye Ball Concentration): 1.78 nM
- Papp at 4 h, 0.2 μM [3]: 0.31 ×10⁻⁶ cm/s
- Microsome Metabolic Stability Rat [4, 9]: 151.9 µL/min/mg
- metabolic stability (in words) ([4]; rat liver microsomes): moderate metabolic stability
- stability in the absence of the coenzyme NADPH ([4]; rat liver microsomes, without NADPH): stable
- CLint scaled at 1 μM ([4]; rat, liver microsomes, pH 7.4, 1 μM, 0.2 mg/mL microsomes, 1 mM NADPH, 30 min, read-out: Microsome Metabolic Stability Rat (CLint)): 272 mL/min/kg
- Microsome Metabolic Stability Human [5, 9]: 54.5 µL/min/mg
- metabolic stability (in words) ([5]; human liver microsomes): moderate metabolic stability
- stability in the absence of the coenzyme NADPH ([5]; human liver microsomes, without NADPH): stable
- CLint scaled at 1 μM ([5]; human, liver microsomes, pH 7.4, 1 μM, 0.2 mg/mL microsomes, 1 mM NADPH, 30 min, read-out: Microsome Metabolic Stability Human (CLint)): 68.3 mL/min/kg
- Protein-Binding (Non-Binding Ratio) Human Plasma [6]: 0.028
- Protein-Binding (Non-Binding Ratio) Rat Plasma [7]: 0.022
- acute systemic toxicity test [8]: not toxic
